A short description of assay [1]: Taste evaluation in neotame-sweetened cola-flavored beverage. The settings on record: for effectiveness as taste modifying ingredient: test cola-beverage formulation, concentration not given; for taste characteristic imparted by neotame / taste of beverage across tested concentrations / taste compared to neotame-sweetened cola-flavored beverage: cola. As to the method:
When a neotame salt was used as a taste modifying/sweetening ingredient, the neotame salt as added in an amount sufficient to provide about 15 ppm to about 25 ppm neotame (e.g., about 0.0028 g of a potassium neotame salt would be used to provide 100 ml of a 25 ppm neotame solution). The taste modifying ingredient was dissolved in the sweetened beverage and the beverage was allowed to stand overnight at room temperature prior to evaluation. Evaluations of the cola-flavored beverages were conducted using a beverage containing water, sodium benzoate (0.16%), phosphoric acid (0.22%), citric acid (0.05%), trisodium citrate (0.08%), caffeine (0.03%), Flavor 28 (1.72%), sweetened with neotame in an amount of about 0.0015% to about 0.0025% (15 ppm to 25 ppm), adjusted to pH 3.2 using sodium citrate.

Assay [2] can be described thus: Taste evaluation of solid tabletop sweetener in whitened, brewed coffee beverage. Particulars: for effectiveness as taste modifying ingredient: tabletop sweetener in a whitened coffee beverage, concentration not given. As to the method:
The following examples 51-78 are directed to solid tabletop sweetener preparations, specifically sachet or packet preparations, comprising mixtures of neotame, one or more taste modifying ingredients and a bulking agent. Taste evaluations were conducted on sweetened coffee or tea beverages prepared by dissolving the solid tabletop sweetener (total weight of 1.00 g) in a cup of brewed coffee or tea. The concentration of the ingredients in the tabletop sweetener is expressed as a percentage by weight, whereas the concentration of the ingredients in the beverage is expressed as parts per million (ppm) or parts per trillion (ppt). The beverages were prepared such that the concentration of neotame in sweetened, whitened coffee beverage was approximately 3-5 ppm and the concentration of neotame in sweetened tea was approximately 5-7 ppm.

Assay [3] is described as follows: Taste evaluation in neotame-sweetened reconstituted powdered soft drink.
A short description of assay [4]: Taste evaluation in neotame-sweetened gelatin dessert. Particulars: glycerin 8.4 ppm.
Assay [5] is described as follows: Taste evaluation in neotame-sweetened hot cocoa beverage.
The conditions of assay [6]: on a weight basis; cited from earlier work.

Structures can show the parent of a compound that is named as a salt. Where a SMILES comes first, the peptide text is derived from it.

As to `OC[C@@H](O)[C@H](O)[C@@H](O)CO` [xylitol], in assay [1], the “effectiveness as taste modifying ingredient” value (“effectiveness” for short) is “ineffective”.

In the case of `COC1=C(C)OC(C)C1=O` (centres unmarked) [Mesifuran], in assay [1], the “effectiveness” value is reported as “not an effective taste modifying ingredient”.

On to `[Cl-].[Na+]` [sodium chloride], for which the “taste characteristic imparted by neotame” value in assay [1] (sodium chloride 5 to 50 ppm) was “positively affected”. The “taste of beverage across tested concentrations” value in assay [1] (sodium chloride 10 ppm) is given as “best tasting beverage”.

For `COC(=O)[C@H](Cc1ccccc1)NC(=O)[C@H](CC(=O)[O-])NCCC(C)(C)C.[Na+]` [sodium-neotame salt], the “taste characteristic imparted by neotame, compared to neotame-sweetened coffee beverage” value in assay [2] (sodium-neotame salt 0.09% by weight (beverage 3.75 ppm), Unidex) is given as “positively affected”.

Take `Cn1c(=O)c2c(ncn2C)n(C)c1=O` [caffeine]: the “taste characteristic imparted by neotame” value in assay [1] (caffeine 140 to 425 ppm) is “positively affected”.

Consider `C[C@@H](O)[C@H](N)C(=O)O` [threonine], for which the “taste characteristic imparted by neotame” value in assay [1] (threonine 5 ppm to 30 ppm) is on record as “positively affected”.

As for `[Ca+2].[Cl-].[Cl-]` [calcium chloride], the “taste characteristic imparted by neotame” value in assay [2] (calcium chloride 0.072% by weight (beverage 3 ppm), neotame 3.75 ppm, Unidex) is “positively affected”.

Take `C=C[C@H]1C[N@@]2CC[C@H]1C[C@H]2[C@H](O)c1ccnc2ccc(OC)cc12` [quinine sulfate]: the “taste characteristic imparted by neotame” value in assay [1] (quinine sulfate 0.01 to 1 ppm) is recorded as “positively affected”.

Take `OCC(O)CO` [glycerol]: the “taste characteristic imparted by neotame” value in assay [1] (glycerol 15 ppm to 2,000 ppm) is “positively affected”; in assay [3] (glycerin 4 to 35 ppm, reconstituted punch-flavored powdered soft drink), “positively affected”; in assay [2] (glycerol 0.04% to 0.2% by weight (beverage 1.7 to 8.3 ppm), neotame 3.3 ppm, Unidex), “positively affected”; in assay [4], “positively affected”.

neotame-phosphate salt: the “taste compared to neotame-sweetened cola-flavored beverage” value in assay [1] (neotame-phosphate salt as sweetener) is listed as “improved taste”.

Consider `Cc1occc(=O)c1O` [maltol], for which the “taste characteristic imparted by neotame” value in assay [2] (maltol 0.035% by weight (beverage 1.44 ppm), neotame 3.75 ppm, Unidex) was “positively affected”.

`CC1=CC(=O)NS(=O)(=O)O1.COC(=O)C(Cc1ccccc1)NC(=O)C(CC(=O)O)NCCC(C)(C)C` (centres unmarked) [acesulfame-neotame salt]: in assay [1] (acesulfame-neotame salt 40 ppm), the “taste compared to neotame-sweetened cola-flavored beverage” value was “improved taste”.

`COc1ccc(CCC(=O)c2c(O)cc(O[C@@H]3O[C@H](CO)[C@@H](O)[C@H](O)[C@H]3O[C@@H]3O[C@@H](C)[C@H](O)[C@@H](O)[C@H]3O)cc2O)cc1O` [neohesperidin dihydrochalcone]: the “taste characteristic imparted by neotame” value is reported as “positively affected” in assay [1] (NHDC 3 ppm); “positively affected” in assay [3] (neohesperidin dihydrochalcone 2 to 3 ppm, reconstituted punch or lemonade flavored powdered soft drinks); “positively affected” in assay [5] (neohesperidin dihydrochalcone 2 to 3 ppm); “positively affected” in assay [2] (neohesperidin dihydrochalcone 0.040% to 0.048% by weight (beverage 1.68 to 2.0 ppm), neotame 3.75 ppm, Unidex).

Consider `N[C@@H](Cc1ccc(O)cc1)C(=O)O` [L-tyrosine], for which the “taste characteristic imparted by neotame” value in assay [1] (L-tyrosine 15 to 50 ppm) is “positively affected”; in assay [3] (tyrosine 35 ppm, reconstituted punch-flavored powdered soft drink), “positively affected”; in assay [2] (L-tyrosine 0.288% by weight (beverage 12 ppm), neotame 3.75 ppm, Unidex), “positively affected”.

`COC(=O)[C@H](Cc1ccccc1)NC(=O)[C@@H](N)CC(=O)O` [aspartame] (H-Asp-Phe-OMe): the “taste characteristic imparted by neotame” value in assay [1] (aspartame 20 to 40 ppm) is “positively affected”; in assay [3] (aspartame 100 to 160 ppm, reconstituted punch or lemonade-flavored powdered soft drink) it was “positively affected”; in assay [5] (aspartame 100 ppm) it was “positively affected”; in assay [2] (aspartame 0.6% to 1.25% by weight (beverage 25 to 52 ppm), neotame 3.75 ppm, Unidex bulking agent) it was “positively affected”.

As to polysorbate 65, the “taste characteristic imparted by neotame” value in assay [1] (polysorbate 65 10 to 15 ppm) is “positively affected”.

Turning to `CC1=CC(=O)[N-]S(=O)(=O)O1.[K+]` [acesulfame-K], the “taste characteristic imparted by neotame” value in assay [1] (acesulfame-K 20 to 40 ppm, neotame 15-25 ppm) was “positively affected”; in assay [3] (acesulfame-K 40 to 100 ppm, reconstituted punch or lemonade-flavored powdered soft drink), “positively affected”; in assay [5] (acesulfame-K 40 to 100 ppm), “positively affected”.

Take beta cyclodextrin-neotame complex: the “taste characteristic imparted by neotame” value in assay [2] (beta cyclodextrin-neotame complex 1.409% by weight (beverage 58.7 ppm, neotame 3.3 ppm), Unidex) is on record as “positively affected”.

Consider polysorbate 80, for which the “taste characteristic imparted by neotame” value in assay [1] (polysorbate 80 10 to 15 ppm) was “positively affected”. For the same molecule, in assay [2], the “effectiveness” value is given as “effective”.

With `OC[C@@H](O)[C@@H](O)CO` [erythritol], the “taste characteristic imparted by neotame” value in assay [1] (erythritol 200 ppm to 10,000 ppm) was “positively affected”.

On to `COC(=O)[C@H](Cc1ccccc1)NC(=O)[C@H](CC(=O)[O-])NCCC(C)(C)C.COC(=O)[C@H](Cc1ccccc1)NC(=O)[C@H](CC(=O)[O-])NCCC(C)(C)C.[Ca+2]` [calcium-neotame salt], for which the “taste compared to neotame-sweetened cola-flavored beverage” value in assay [1] (calcium-neotame salt as sweetener) is on record as “improved taste”. Moreover, the “taste characteristic imparted by neotame, compared to neotame-sweetened coffee beverage” value in assay [2] (calcium-neotame salt 0.056% by weight (beverage 2.33 ppm), Unidex) was “positively affected”.

On to `COC(=O)[C@H](Cc1ccccc1)NC(=O)[C@H](CC(=O)O)NCCC(C)(C)C` [neotame, N-[N-(3,3-dimethylbutyl)-L-α-aspartyl]-L-phenylalanine 1-methyl ester], for which, in assay [6], the “sweetness relative to sucrose” value is “approximately 8,000 times as sweet as sucrose”.

thaumatin: the “taste characteristic imparted by neotame” value in assay [2] (thaumatin 0.12% by weight (beverage 5.0 ppm), neotame 3.75 ppm, Unidex) was “positively affected”.

In the case of `CC1(C)[C@@H](O[C@H]2O[C@H](C(=O)O)[C@@H](O)[C@H](O)[C@H]2O[C@@H]2O[C@H](C(=O)O)[C@@H](O)[C@H](O)[C@H]2O)CC[C@]2(C)[C@H]3C(=O)C=C4[C@@H]5C[C@@](C)(C(=O)O)CC[C@]5(C)CC[C@@]4(C)[C@]3(C)CC[C@@H]12.N` [monoammonium glycyrrhizinate], the “taste characteristic imparted by neotame” value in assay [1] (monoammonium glycyrrhizinate 0.25 ppm) is listed as “positively affected”.

In the case of `OC[C@@H](O)[C@@H](O)[C@H](O)[C@H](O)CO` [mannitol], the “taste characteristic imparted by neotame” value in assay [1] (mannitol 100 ppm to 2,000 ppm) is recorded as “positively affected”.

Regarding `O=C1NS(=O)(=O)c2ccccc21` [saccharin], the “taste characteristic imparted by neotame” value in assay [1] (saccharin 20 to 150 ppm) is recorded as “positively affected”; in assay [3] (saccharin 20 to 40 ppm, reconstituted punch or lemonade-flavored powdered soft drink), “positively affected”; in assay [5] (saccharin 20 to 40 ppm), “positively affected”; in assay [2] (saccharin 1.32% by weight (beverage 5.5 ppm), neotame 3.75 ppm, Unidex), “positively affected”. Further, the “taste of beverage across tested concentrations” value in assay [1] (saccharin 100 ppm) is given as “best tasting beverage”.

For the molecule Neotame-monopotassium phosphate, the “effectiveness” value in assay [1] was “ineffective”.

With `OC[C@@H](O)[C@@H](O)[C@H](O)[C@@H](O)CO` [sorbitol], the “effectiveness” value in assay [1] is listed as “ineffective”.

In the case of `COC(=O)[C@H](Cc1ccccc1)NC(=O)[C@H](CC(=O)[O-])NCCC(C)(C)C.[K+]` [potassium-neotame salt], the “taste compared to neotame-sweetened cola-flavored beverage” value in assay [1] (potassium-neotame salt as sweetener) is given as “improved taste”. In addition, the “taste characteristic imparted by neotame, compared to neotame-sweetened coffee beverage” value in assay [2] (potassium-neotame salt 0.11% by weight (beverage 4.58 ppm), Unidex) is listed as “positively affected”.

For the molecule `COc1cc(C=O)ccc1O` [vanillin], the “taste characteristic imparted by neotame” value in assay [3] (vanillin 0.5 ppm, reconstituted punch and lemonade-flavored soft drinks) is reported as “positively affected”.

Take `C[C@@H]1O[C@@H](O[C@H]2[C@H](Oc3cc(O)c4c(c3)O[C@H](c3ccc(O)cc3)CC4=O)O[C@H](CO)[C@@H](O)[C@@H]2O)[C@H](O)[C@H](O)[C@H]1O` [naringin]: the “effectiveness” value in assay [1] is “ineffective”.

`OC[C@H]1O[C@@](CO)(O[C@H]2O[C@H](CO)[C@@H](O)[C@H](O)[C@H]2O)[C@@H](O)[C@@H]1O` [sucrose]: the “taste characteristic imparted by neotame” value in assay [1] (sucrose 2000 ppm to 4000 ppm) is recorded as “positively affected”.

For `CCc1occc(=O)c1O` [ethyl maltol], the “taste characteristic imparted by neotame” value in assay [2] (ethyl maltol 0.0482% by weight (beverage 2 ppm), neotame 3.75 ppm, Unidex) was “positively affected”.

For polysorbate 60, the “taste characteristic imparted by neotame” value in assay [1] (polysorbate 60 10 to 15 ppm) was “positively affected”; in assay [2] (polysorbate 60 0.05% to 0.10% by weight (beverage 2.08 to 4.2 ppm), neotame 3.75 ppm, Unidex) it was “positively affected”. In addition, the “effectiveness” value in assay [2] is “effective”.

As for neotame-monocalcium phosphate, in assay [1], the “effectiveness” value is listed as “ineffective”.

On to `[Cl-].[K+]` [potassium chloride], for which, in assay [1], the “effectiveness” value is given as “ineffective”.

The values above are taken from patent publication US6368651B1, “Use of additives to modify the taste characteristics of N-neohexyl-α-aspartyl-L-phenylalanine methyl ester” (The NutraSweet Company, priority 1999, dated 2002).
